From patent US20260297060A1, “COMPOUNDS FOR THE DEGRADATION OF MUTANT BRAF” (C4 THERAPEUTICS, INC., priority 2023, published 2026) come the findings set out here.

Read-outs that look alike come from different tables or passages of the source. Where only a bound is given, the exact number is not on record here.

In one experiment the target is T1, BRAF V600E (Homo sapiens, UniProt P15056+Q96SW2, V600E).
T1 construct: knock-in of the HiBiT tag to the endogenous BRAF V600E locus; host or cells: A375.10 (A375 clonal line, CRISPR HiBiT knock-in at the endogenous BRAF V600E locus)
Description: BRAF V600E HiBiT Degradation Assay. The experiment is classed as cell-based. To be noted: A375.10 cells, BRAF V600E. The procedure, abridged: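 Endogenous HiBiT knock-in on BRAF V600E in A375 cells (clone A375.10); 11-point half-log series, top 10 μM, 2, 6 or 24 h at 37° C. Lytic HiBiT luminescence, background-subtracted, normalized to DMSO; 4-parameter fit gives DC50, Emax (residual protein) and IP (inflection point).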

For a further experiment, the system named is A375-NRAS^Q61K cells. The experiment is described as follows: CTGlo Cell Viability Assay, A375-NRAS^Q61K (A375.11) cells, 96 hours. Format: cell-based, human. To be noted: A375.11 (A375-NRAS^Q61K) cells. In a few lines:
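Viability as CellTiter-Glo ATP luminescence after 96 h compound exposure at 37 °C; A375.11 (BRAF V600E/NRAS Q61K) cells at 250/well, top final concentration 10 μM in half-log steps. Signal was background-corrected and set relative to DMSO controls. A 4-parameter logistic fit gave GI50 (50% crossing) and Emax.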

Where [1] appears, read: 2 hours, inflection point, read-out: HiBiT-Degradation A375.10 BRAF 2 hours IP.
Where [2] appears, read: 2 hours, read-out: HiBiT-Degradation A375.10 BRAF 2 hours DC50.
The mark [3] stands for this setting: 2 hours, residual protein remaining, read-out: HiBiT-Degradation A375.10 BRAF 2 hours Emax.
Setting [4] is: Homo sapiens, 96 h, lowest % viability achieved.

T1 sequence (P15056 whole entry V600E): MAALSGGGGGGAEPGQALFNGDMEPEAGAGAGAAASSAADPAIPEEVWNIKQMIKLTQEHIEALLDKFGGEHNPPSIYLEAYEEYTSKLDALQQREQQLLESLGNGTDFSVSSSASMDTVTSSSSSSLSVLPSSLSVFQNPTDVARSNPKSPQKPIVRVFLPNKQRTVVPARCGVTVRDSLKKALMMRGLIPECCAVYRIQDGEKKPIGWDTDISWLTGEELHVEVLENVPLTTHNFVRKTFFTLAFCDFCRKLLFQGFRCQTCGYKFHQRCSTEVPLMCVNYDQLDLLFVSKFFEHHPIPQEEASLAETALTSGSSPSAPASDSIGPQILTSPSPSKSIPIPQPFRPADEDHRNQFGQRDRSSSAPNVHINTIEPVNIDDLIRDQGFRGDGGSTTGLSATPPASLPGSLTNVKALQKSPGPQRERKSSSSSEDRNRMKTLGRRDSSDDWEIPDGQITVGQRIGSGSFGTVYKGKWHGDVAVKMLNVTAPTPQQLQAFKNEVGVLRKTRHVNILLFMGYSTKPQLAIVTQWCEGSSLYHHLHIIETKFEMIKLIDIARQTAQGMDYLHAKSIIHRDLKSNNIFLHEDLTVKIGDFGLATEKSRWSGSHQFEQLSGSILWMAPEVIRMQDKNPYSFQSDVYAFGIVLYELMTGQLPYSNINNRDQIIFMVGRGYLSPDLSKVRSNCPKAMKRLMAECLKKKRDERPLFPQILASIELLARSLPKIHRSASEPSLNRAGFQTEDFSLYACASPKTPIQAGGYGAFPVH
T1 sequence (Q96SW2 whole entry): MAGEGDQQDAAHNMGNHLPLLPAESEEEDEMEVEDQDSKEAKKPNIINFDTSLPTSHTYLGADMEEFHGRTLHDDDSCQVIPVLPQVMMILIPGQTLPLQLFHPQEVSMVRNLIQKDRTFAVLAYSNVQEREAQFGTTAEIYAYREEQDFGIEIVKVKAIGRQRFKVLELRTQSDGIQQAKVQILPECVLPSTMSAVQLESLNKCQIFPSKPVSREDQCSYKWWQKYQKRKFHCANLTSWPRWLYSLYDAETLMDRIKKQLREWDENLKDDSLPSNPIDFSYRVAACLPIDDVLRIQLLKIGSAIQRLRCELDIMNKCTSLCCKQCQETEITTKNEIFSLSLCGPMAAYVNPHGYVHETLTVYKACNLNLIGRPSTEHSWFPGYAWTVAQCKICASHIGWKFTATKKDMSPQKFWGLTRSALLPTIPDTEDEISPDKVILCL
T1 sequence (Q16531 whole entry partner): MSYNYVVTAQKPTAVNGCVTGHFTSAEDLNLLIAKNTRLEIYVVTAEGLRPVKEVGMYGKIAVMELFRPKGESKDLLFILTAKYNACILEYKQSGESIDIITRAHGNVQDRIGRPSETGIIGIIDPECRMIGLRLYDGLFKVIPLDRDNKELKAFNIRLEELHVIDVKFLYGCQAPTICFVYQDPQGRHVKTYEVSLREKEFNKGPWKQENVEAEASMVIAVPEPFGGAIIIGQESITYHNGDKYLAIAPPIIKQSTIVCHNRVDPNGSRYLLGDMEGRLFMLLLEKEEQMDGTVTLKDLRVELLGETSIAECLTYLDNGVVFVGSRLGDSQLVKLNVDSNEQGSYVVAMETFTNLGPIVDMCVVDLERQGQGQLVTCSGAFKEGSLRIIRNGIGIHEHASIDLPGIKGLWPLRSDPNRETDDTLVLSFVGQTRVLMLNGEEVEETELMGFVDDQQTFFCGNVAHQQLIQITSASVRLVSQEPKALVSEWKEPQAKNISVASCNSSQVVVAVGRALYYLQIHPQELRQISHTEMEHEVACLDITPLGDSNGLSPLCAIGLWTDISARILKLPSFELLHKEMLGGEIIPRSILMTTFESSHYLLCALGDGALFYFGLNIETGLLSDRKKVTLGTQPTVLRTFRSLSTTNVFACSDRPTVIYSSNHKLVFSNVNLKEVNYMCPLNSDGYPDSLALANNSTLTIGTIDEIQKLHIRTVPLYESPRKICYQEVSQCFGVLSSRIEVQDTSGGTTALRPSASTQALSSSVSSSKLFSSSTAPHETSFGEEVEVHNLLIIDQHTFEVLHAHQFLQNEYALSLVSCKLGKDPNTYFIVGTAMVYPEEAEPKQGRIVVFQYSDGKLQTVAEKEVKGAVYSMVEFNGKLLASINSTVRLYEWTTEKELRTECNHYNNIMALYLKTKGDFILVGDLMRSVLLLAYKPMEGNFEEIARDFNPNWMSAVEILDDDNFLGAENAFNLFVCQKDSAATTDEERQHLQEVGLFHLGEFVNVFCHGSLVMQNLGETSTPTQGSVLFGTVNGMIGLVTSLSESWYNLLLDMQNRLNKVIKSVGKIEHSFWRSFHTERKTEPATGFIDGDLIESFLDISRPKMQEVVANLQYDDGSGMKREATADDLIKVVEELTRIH

As for `CN(CCO)S(=O)(=O)Nc1ccc(F)c(Oc2ccc3ncn([C@H]4COC5(CCC(N6CCC(c7cc8c(cc7F)c(N7CCC(=O)NC7=O)nn8C)C(F)(F)C6)CC5)C4)c(=O)c3c2)c1C#N` (single isomer, unassigned) [Compound 212], the DC50 on BRAF V600E (setting [1]) and at BRAF V600E (setting [2]) was < 1 µM in each case. Further, the Emax was < 50% at BRAF V600E (setting [3]) and 50 to 90% with A375-NRAS^Q61K cells (setting [4]). Besides, the GI50 (commonly the concentration at which growth is held to half of that of the control) in the experiment with A375-NRAS^Q61K cells (Homo sapiens, 96 h) was < 1 µM.
For `CCN(C)S(=O)(=O)Nc1ccc(F)c(Oc2ccc3ncn([C@@H]4C[C@@H]5CN(C6CCC(c7cc8c(cc7F)c(N7CCC(=O)NC7=O)nn8C)CC6)C[C@@H]5C4)c(=O)c3c2)c1C#N` (single isomer, unassigned) [Compound 16], the DC50 at BRAF V600E (setting [1]) and on BRAF V600E (setting [2]) was < 1 µM in each case. The values for the Emax at BRAF V600E (setting [3]) and in the experiment with A375-NRAS^Q61K cells (setting [4]) were 50 to 90% and < 50%, respectively. The same compound yielded a GI50 in the experiment with A375-NRAS^Q61K cells of 1 to 10 µM.
`CCN(C)S(=O)(=O)Nc1ccc(F)c(Oc2ccc3ncn([C@H]4COC5(CCN(CC6CCN(c7cc8c(cc7F)c(N7CCC(=O)NC7=O)nn8C)CC6)CC5)C4)c(=O)c3c2)c1C#N` [Compound 251, (3R)-3-[6-[2-cyano-3-[[ethyl(methyl)sulfamoyl]amino]-6-fluoro-phenoxy]-4-oxo-quinazolin-3-yl]-8-[[1-[3-(2,4-dioxohexahydropyrimidin-1-yl)-5-fluoro-1-methyl-indazol-6-yl]-4-piperidyl]methyl]-1-oxa-8-azaspiro[4.5]decane]: the DC50 on BRAF V600E (setting [1]) and on BRAF V600E (setting [2]) was < 1 µM each time. Besides, the Emax on BRAF V600E (setting [3]) and with A375-NRAS^Q61K cells (setting [4]) was 50 to 90% each time. In the experiment on A375-NRAS^Q61K cells (Homo sapiens, 96 h), this compound came in with a GI50 of 1 to 10 µM.
On to `CCN(C)S(=O)(=O)Nc1ccc(F)c(Oc2ccc3ncc(CCC4CCN(C5CCC(c6cc7c(cc6F)c(N6CCC(=O)NC6=O)nn7C)CC5)CC4)nc3c2)c1C#N` (single isomer, unassigned) [Compound 128, 7-[2-cyano-3-[[ethyl(methyl)sulfamoyl]amino]-6-fluoro-phenoxy]-2-[2-[1-[4-[3-(2,4-dioxohexahydropyrimidin-1-yl)-5-fluoro-1-methyl-indazol-6-yl]cyclohexyl]-4-piperidyl]ethyl]quinoxaline], for which the DC50 is < 1 µM at BRAF V600E (setting [1]) and > 10 µM on BRAF V600E (setting [2]). Further, the Emax at BRAF V600E (setting [3]) and in the experiment with A375-NRAS^Q61K cells (setting [4]) was 50 to 90% in each case. In the experiment with A375-NRAS^Q61K cells, the GI50 is > 10 µM.
For the compound `CO[C@H]1CCN(S(=O)(=O)Nc2ccc(F)c(Oc3ccc4ncc(C5CC6(CCN(C7CCC(c8cc9c(cc8F)c(N8CCC(=O)NC8=O)nn9C)CC7)CC6)C5)nc4c3)c2C#N)C1` (single isomer, unassigned) [Compound 276], the “HiBiT-Degradation A375.10 BRAF 2 hours IP” value on BRAF V600E (2 hours, inflection point) was “*** (<=1 μM)”. Further, at BRAF V600E (2 hours, residual protein remaining), the “HiBiT-Degradation A375.10 BRAF 2 hours Emax” value is “** (<90% and >50%)”. On BRAF V600E (read-out: HiBiT-Degradation A375.10 BRAF 2 hours DC50, 2 hours), the DC50 is < 1 µM. This compound returned a GI50 in the experiment on A375-NRAS^Q61K cells of 1 to 10 µM. Further, the “CTGlo A375.11 96 hours Emax” value with A375-NRAS^Q61K cells (lowest % viability achieved) was “** (<90% and >50%)”.
As for `CCN(C)S(=O)(=O)Nc1ccc(F)c(Oc2ccc3ncn(C4CC5(C4)CN(C4CC6(C4)CN(c4cc7c(cc4F)c(N4CCC(=O)NC4=O)nn7C)C6)C5)c(=O)c3c2)c1C#N` (stereo not drawn) [Compound 305, 6-[2-cyano-3-[[ethyl(methyl)sulfamoyl]amino]-6-fluoro-phenoxy]-3-[2-[2-[3-(2,4-dioxohexahydropyrimidin-1-yl)-5-fluoro-1-methyl-indazol-6-yl]-2-azaspiro[3.3]heptan-6-yl]-2-azaspiro[3.3]heptan-6-yl]-4-oxo-quinazoline], the DC50 on BRAF V600E (setting [1]) is < 1 µM; at BRAF V600E (setting [2]), < 1 µM; at BRAF V600E (HiBiT, 24 hours, read-out: HiBiT-Degradation A375.10 BRAF 24 hours DC50), < 1 µM; at BRAF V600E (HiBiT, 24 hours, read-out: HiBiT-Degradation A375.10 BRAF 24 hours IP) it was < 1 µM. Moreover, the Emax at BRAF V600E (setting [3]) was < 50%; at BRAF V600E (HiBiT, 24 hours, read-out: HiBiT-Degradation A375.10 BRAF 24 hours Emax), < 50%; in the experiment with A375-NRAS^Q61K cells (setting [4]) it was 50 to 90%. Also, the GI50 in the experiment with A375-NRAS^Q61K cells (Homo sapiens, 96 h) is < 1 µM.
